PubChem BioAssay AID192 (DTP/NCI, 2004)
Values joined by “and” are separate entries in the source; they are usually repeats but may differ in a detail not shown here. Equal values may be shown once. Toxic doses and inconclusive results are not listed. Square brackets hold non-standard residues; d marks the D form. Peptide text beside a SMILES is read from it. ξ: configuration not given here. ξH = NC(Cc1c[nH]cn1)C(=O)O

Tested on: BDF1 mice, B16 melanoma ip, median survival T/C
Test: NCI In Vivo Anticancer Drug Screen. Data for tumor model B16 Melanoma (intraperitoneal) in B6D2F1 (BDF1) mice
Details: endpoint: median survival time, higher = longer survival
How it was run: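 Transplantable tumor model; survival or tumor size measured; reported as T/C, treated over vehicle control.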

[1] = dose: 50.0 mg/kg/injection, schedule: Q04DX003 (ip), vehicle: Klucel (hydroxypropylcellulose) (HPC)
[2] = dose: 50.0 mg/kg/injection, schedule: Q01DX009 (ip), vehicle: saline
[3] = dose: 100.0 mg/kg/injection, schedule: Q01DX009 (ip), vehicle: saline
[4] = dose: 200.0 mg/kg/injection, schedule: Q01DX009 (ip), vehicle: saline
[5] = dose: 6.25 mg/kg/injection, schedule: Q01DX009 (ip), vehicle: saline with Tween-80
[6] = dose: 12.5 mg/kg/injection, schedule: Q01DX009 (ip), vehicle: saline with Tween-80
[7] = dose: 50.0 mg/kg/injection, schedule: Q01DX009 (ip), vehicle: saline with Tween-80
[8] = dose: 25.0 mg/kg/injection, schedule: Q01DX009 (ip), vehicle: Klucel (hydroxypropylcellulose) (HPC)
[9] = dose: 50.0 mg/kg/injection, schedule: Q01DX009 (ip), vehicle: Klucel (hydroxypropylcellulose) (HPC)
[10] = dose: 200.0 mg/kg/injection, schedule: Q01DX009 (ip), vehicle: Klucel (hydroxypropylcellulose) (HPC)
[11] = dose: 100.0 mg/kg/injection, schedule: Q01DX009 (ip), vehicle: Klucel (hydroxypropylcellulose) (HPC)

## C/C=C(\CC)C(=O)NC(N)=O
dose: 12.5 mg/kg/injection, schedule: Q04DX003 (ip), vehicle: Klucel (hydroxypropylcellulose) (HPC)
  T/C: 93 % of control
dose: 25.0 mg/kg/injection, schedule: Q04DX003 (ip), vehicle: Klucel (hydroxypropylcellulose) (HPC)
  T/C: 100 % of control
[1]
  T/C: 93 % of control
dose: 200.0 mg/kg/injection, schedule: Q04DX003 (ip), vehicle: Klucel (hydroxypropylcellulose) (HPC)
  T/C: 95 % of control

## NCC(=O)NCC(=O)NC(Cc1cnc[nH]1)C(=O)O (stereo not drawn) (H-Gly-Gly-[ξH]-OH)
[2]
  T/C: 92 % of control
[3]
  T/C: 99 % of control
[4]
  T/C: 88 % of control
dose: 400.0 mg/kg/injection, schedule: Q01DX009 (ip), vehicle: saline
  T/C: 101 % of control

## O=C(O[Si](Cc1ccccc1)(Cc1ccccc1)Cc1ccccc1)N(CCCl)CCCl
[5]
  T/C: 100 % of control
[6]
  T/C: 112 % of control
dose: 25.0 mg/kg/injection, schedule: Q01DX009 (ip), vehicle: saline with Tween-80
  T/C: 104 % of control
[7]
  T/C: 108 % of control

## CC(C)C(=O)OCC1OC(n2cnc3c(=S)nc(N)[nH]c32)C(OC(=O)C(C)C)C1OC(=O)C(C)C (stereo not given)
dose: 3.13 mg/kg/injection, schedule: Q01DX009 (ip), vehicle: saline with Tween-80
  T/C: 114 % of control
[5]
  T/C: 108 % of control
[6]
  T/C: 110 % of control

## Cc1c2ccncc2c(C)c2c1[nH]c1ccccc12
dose: 1.25 mg/kg/injection, schedule: Q01DX009 (ip), vehicle: saline
  T/C: 109 % of control
dose: 1.25 mg/kg/injection, schedule: Q01DX009 (ip), vehicle: water
  T/C: 102 % of control
dose: 2.5 mg/kg/injection, schedule: Q01DX009 (ip), vehicle: saline
  T/C: 113 % of control
dose: 2.5 mg/kg/injection, schedule: Q01DX009 (ip), vehicle: water
  T/C: 103 % of control and 110 % of control
dose: 5.0 mg/kg/injection, schedule: Q01DX009 (ip), vehicle: saline
  T/C: 120 % of control
dose: 5.0 mg/kg/injection, schedule: Q01DX009 (ip), vehicle: water
  T/C: 110 % of control and 114 % of control
dose: 8.0 mg/kg/injection, schedule: Q01DX005 (iv), vehicle: saline with Tween-80
  T/C: 106 % of control
dose: 12.5 mg/kg/injection, schedule: Q04DX003 (ip), vehicle: distilled water + Tween-80
  T/C: 117 % of control and 121 % of control
dose: 16.0 mg/kg/injection, schedule: Q01DX005 (ip), vehicle: saline with Tween-80
  T/C: 171 % of control
dose: 16.0 mg/kg/injection, schedule: Q01DX005 (iv), vehicle: saline with Tween-80
  T/C: 110 % of control
dose: 16.0 mg/kg/injection, schedule: Q01DX005 (oral), vehicle: saline with Tween-80
  T/C: 110 % of control
dose: 25.0 mg/kg/injection, schedule: Q04DX003 (ip), vehicle: distilled water + Tween-80
  T/C: 119 % of control
dose: 32.0 mg/kg/injection, schedule: Q01DX005 (ip), vehicle: saline with Tween-80
  T/C: 191 % of control
dose: 32.0 mg/kg/injection, schedule: Q01DX005 (oral), vehicle: saline with Tween-80
  T/C: 108 % of control
[1]
  T/C: 154 % of control
dose: 64.0 mg/kg/injection, schedule: Q01DX005 (oral), vehicle: saline with Tween-80
  T/C: 117 % of control
dose: 100.0 mg/kg/injection, schedule: Q04DX003 (ip), vehicle: distilled water + Tween-80
  T/C: 153 % of control

## CN1NCc2cncnc21
[7]
  T/C: 107 % of control
dose: 100.0 mg/kg/injection, schedule: Q01DX009 (ip), vehicle: saline with Tween-80
  T/C: 101 % of control
dose: 200.0 mg/kg/injection, schedule: Q01DX009 (ip), vehicle: saline with Tween-80
  T/C: 97 % of control

## C/C(=N/N=C(N)N)c1ccc(NC(=O)Nc2ccc(/C(C)=N/N=C(N)N)cc2)cc1
[8]
  T/C: 99 % of control
[9]
  T/C: 121 % of control
[10]
  T/C: 120 % of control

## CNc1ncnc2c1cnn2C
dose: 10.0 mg/kg/injection, schedule: Q01DX009 (ip), vehicle: Klucel (hydroxypropylcellulose) (HPC)
  T/C: 97 % of control
dose: 20.0 mg/kg/injection, schedule: Q01DX009 (ip), vehicle: Klucel (hydroxypropylcellulose) (HPC)
  T/C: 89 % of control
dose: 40.0 mg/kg/injection, schedule: Q01DX009 (ip), vehicle: Klucel (hydroxypropylcellulose) (HPC)
  T/C: 89 % of control

## COc1ccccc1N1C(=O)CSC1=S
dose: 12.5 mg/kg/injection, schedule: Q01DX009 (ip), vehicle: Klucel (hydroxypropylcellulose) (HPC)
  T/C: 95 % of control
[8]
  T/C: 105 % of control
[9]
  T/C: 87 % of control
[11]
  T/C: 105 % of control

## CCCCCC#CC(=O)O
dose: 75.0 mg/kg/injection, schedule: Q01DX009 (ip), vehicle: Klucel (hydroxypropylcellulose) (HPC)
  T/C: 95 % of control
dose: 150.0 mg/kg/injection, schedule: Q01DX009 (ip), vehicle: Klucel (hydroxypropylcellulose) (HPC)
  T/C: 86 % of control

## C/C=C(/C)C(=O)O[C@H]1CC[N+]2([O-])CC=C(COC(=O)[C@@](O)([C@H](C)OC)C(C)(C)O)[C@H]12 (stereo not given in full)
dose: 25.0 mg/kg/injection, schedule: Q01DX009 (ip), vehicle: saline
  T/C: 95 % of control
[2]
  T/C: 97 % of control
[3]
  T/C: 107 % of control
[4]
  T/C: 100 % of control

## CSc1ncnc2nc[nH]c12
[9]
  T/C: 104 % of control
[11]
  T/C: 100 % of control
[10]
  T/C: 102 % of control
dose: 400.0 mg/kg/injection, schedule: Q01DX009 (ip), vehicle: Klucel (hydroxypropylcellulose) (HPC)
  T/C: 88 % of control
